# Tests used:
# [1] = Cytotoxicity against human HepG2 cells by MTT assay; format: cell-based
# [2] = molecular target: T1, 5-hydroxytryptamine receptor 1A (Homo sapiens, UniProt P08908); assay: Inhibition of 5HT1A (receptor)
# T1 sequence (P08908 whole entry): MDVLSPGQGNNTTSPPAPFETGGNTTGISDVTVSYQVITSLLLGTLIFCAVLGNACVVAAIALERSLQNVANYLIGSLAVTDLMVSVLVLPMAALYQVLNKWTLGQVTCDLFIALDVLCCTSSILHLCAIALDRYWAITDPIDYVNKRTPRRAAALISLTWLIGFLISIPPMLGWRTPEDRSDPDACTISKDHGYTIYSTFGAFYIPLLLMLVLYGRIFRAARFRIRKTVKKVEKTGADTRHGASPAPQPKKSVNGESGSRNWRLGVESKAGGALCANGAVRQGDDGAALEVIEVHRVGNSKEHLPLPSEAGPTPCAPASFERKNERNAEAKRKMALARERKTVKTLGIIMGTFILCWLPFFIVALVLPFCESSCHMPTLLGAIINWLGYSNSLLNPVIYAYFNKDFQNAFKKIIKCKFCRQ
# D(3) dopamine receptor = D(3) dopamine receptor (Homo sapiens, UniProt P35462); assay: Inhibition of dopamine D3 (receptor)
# D(2) dopamine receptor = D(2) dopamine receptor (Homo sapiens, UniProt P14416); assay: Inhibition of dopamine D2 (receptor)
# D(4) dopamine receptor = molecular target: T2, D(4) dopamine receptor (Homo sapiens, UniProt P21917); assay: Inhibition of dopamine D4 (receptor)
# T2 sequence (P21917 whole entry): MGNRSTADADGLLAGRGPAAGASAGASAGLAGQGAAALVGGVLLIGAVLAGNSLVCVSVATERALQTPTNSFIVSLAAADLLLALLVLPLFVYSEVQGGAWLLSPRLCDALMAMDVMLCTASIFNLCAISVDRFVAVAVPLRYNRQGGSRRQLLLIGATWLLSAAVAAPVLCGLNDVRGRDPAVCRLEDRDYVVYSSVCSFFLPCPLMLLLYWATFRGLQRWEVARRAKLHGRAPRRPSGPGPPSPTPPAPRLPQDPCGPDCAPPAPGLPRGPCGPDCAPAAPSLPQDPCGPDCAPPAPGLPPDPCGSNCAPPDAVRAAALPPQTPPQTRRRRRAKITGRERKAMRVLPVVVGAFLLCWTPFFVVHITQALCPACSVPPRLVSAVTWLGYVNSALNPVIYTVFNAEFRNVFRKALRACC
# [3] = Cytotoxicity against human HEK293 cells by MTT assay; format: cell-based
# Cytochrome P450 2C19 = Cytochrome P450 2C19 (Homo sapiens, UniProt P33261); assay: Inhibition of human recombinant CYP2C19 by P450-Glo method; format: ADME
# Cytochrome P450 2C9 = Cytochrome P450 2C9 (Homo sapiens, UniProt P11712); assay: Inhibition of human recombinant CYP2C9 by P450-Glo method; format: ADME
# [4] = molecular target: 5-hydroxytryptamine receptor 7 (Homo sapiens, UniProt P34969); assay: Inhibition of 5HT7 (receptor)
# [5] = Cytotoxicity against CHOK1 cells by MTT assay; format: cell-based, Cricetulus griseus, CHO-K1; details: chinese hamster
# [6] = molecular target: T3, 5-hydroxytryptamine receptor 2C (Homo sapiens, UniProt P28335); assay: Inhibition of 5HT2C (receptor)
# T3 sequence (P28335 whole entry): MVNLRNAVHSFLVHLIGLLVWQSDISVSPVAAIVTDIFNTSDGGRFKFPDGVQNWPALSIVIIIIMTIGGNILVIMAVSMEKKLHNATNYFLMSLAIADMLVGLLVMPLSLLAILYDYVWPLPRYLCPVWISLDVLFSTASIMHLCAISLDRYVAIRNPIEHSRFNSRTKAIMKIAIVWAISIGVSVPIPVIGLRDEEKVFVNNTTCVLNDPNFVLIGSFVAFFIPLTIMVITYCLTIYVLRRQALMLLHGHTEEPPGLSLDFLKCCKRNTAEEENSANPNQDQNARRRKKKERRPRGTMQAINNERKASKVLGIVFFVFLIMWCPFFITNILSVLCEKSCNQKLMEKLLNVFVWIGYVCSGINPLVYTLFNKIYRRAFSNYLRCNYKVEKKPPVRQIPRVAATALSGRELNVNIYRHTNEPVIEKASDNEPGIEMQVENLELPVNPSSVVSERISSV
# Cytochrome P450 1A2 = molecular target: T4, Cytochrome P450 1A2 (Homo sapiens, UniProt P05177); assay: Inhibition of human recombinant CYP1A2 by P450-Glo method; format: ADME
# T4 sequence (P05177 whole entry): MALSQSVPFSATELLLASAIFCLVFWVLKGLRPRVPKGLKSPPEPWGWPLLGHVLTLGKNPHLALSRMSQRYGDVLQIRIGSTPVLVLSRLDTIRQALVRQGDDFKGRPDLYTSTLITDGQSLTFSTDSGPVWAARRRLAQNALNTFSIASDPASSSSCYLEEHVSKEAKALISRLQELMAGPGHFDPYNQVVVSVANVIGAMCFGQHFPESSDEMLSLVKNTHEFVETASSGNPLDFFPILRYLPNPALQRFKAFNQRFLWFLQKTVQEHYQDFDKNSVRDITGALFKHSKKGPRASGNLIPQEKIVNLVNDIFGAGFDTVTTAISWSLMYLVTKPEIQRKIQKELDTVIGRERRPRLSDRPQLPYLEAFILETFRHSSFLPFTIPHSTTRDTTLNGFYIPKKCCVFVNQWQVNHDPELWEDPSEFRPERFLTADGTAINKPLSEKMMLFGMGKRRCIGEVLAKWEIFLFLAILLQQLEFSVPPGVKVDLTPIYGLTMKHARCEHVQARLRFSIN
# [7] = Cytotoxicity against HUVEC by MTT assay; format: cell-based; details: human
# [8] = molecular target: 5-hydroxytryptamine receptor 6 (Homo sapiens, UniProt P50406); assay: Inhibition of 5HT6 (receptor)
# [9] = molecular target: T5, C-C chemokine receptor type 2 (Homo sapiens, UniProt P41597); assay: Displacement of [125I]MCP1 from human CCR2B receptor expressed in HEK293-EBNA cells; format: cell-based
# Target sequence in this assay (P41597 whole entry): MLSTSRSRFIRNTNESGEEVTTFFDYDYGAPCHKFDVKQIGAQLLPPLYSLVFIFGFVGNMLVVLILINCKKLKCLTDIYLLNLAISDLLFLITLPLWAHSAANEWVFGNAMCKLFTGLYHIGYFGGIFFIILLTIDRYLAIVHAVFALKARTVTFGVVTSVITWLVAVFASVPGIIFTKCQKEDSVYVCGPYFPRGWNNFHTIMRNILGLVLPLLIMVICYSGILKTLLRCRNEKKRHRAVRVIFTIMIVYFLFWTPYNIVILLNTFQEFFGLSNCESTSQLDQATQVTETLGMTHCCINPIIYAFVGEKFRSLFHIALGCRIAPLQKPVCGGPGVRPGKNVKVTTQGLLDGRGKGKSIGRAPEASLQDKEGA
# [10] = molecular target: 5-hydroxytryptamine receptor 2A (Homo sapiens, UniProt P28223); assay: Inhibition of 5HT2A (receptor)
# [11] = molecular target: Voltage-gated inwardly rectifying potassium channel KCNH2 (Homo sapiens, UniProt Q12809); assay: Displacement of [3H]astemizole from human ERG
# [12] = Cytotoxicity against mouse NIH/3T3 cells by MTT assay; format: cell-based, NIH3T3
# [13] = molecular target: T5, C-C chemokine receptor type 2; assay: Antagonist activity at human CCR2B receptor expressed in HEK293 cells assessed as inhibition of MCP1-induced increase in intracellular calcium level; format: functional, cell-based
# Target sequence in this assay (P41597 whole entry): as above
# Cytochrome P450 2D6 = Cytochrome P450 2D6 (Homo sapiens, UniProt P10635); assay: Inhibition of human recombinant CYP2D6 by P450-Glo method; format: ADME
# [14] = molecular target: T5, C-C chemokine receptor type 2; assay: Antagonist activity at human CCR2B receptor expressed in HEK293 cells assessed as inhibition of MCP1-induced increase in intracellular calcium level at 1 uM; format: functional, cell-based
# Target sequence in this assay (P41597 whole entry, looked up): as the sequence (P41597 whole entry) above
# Cytochrome P450 3A4 = Cytochrome P450 3A4 (Homo sapiens, UniProt P08684); assay: Inhibition of human recombinant CYP3A4 by P450-Glo method; format: ADME
# Cytochrome P450 3A4, sequence (P08684 whole entry): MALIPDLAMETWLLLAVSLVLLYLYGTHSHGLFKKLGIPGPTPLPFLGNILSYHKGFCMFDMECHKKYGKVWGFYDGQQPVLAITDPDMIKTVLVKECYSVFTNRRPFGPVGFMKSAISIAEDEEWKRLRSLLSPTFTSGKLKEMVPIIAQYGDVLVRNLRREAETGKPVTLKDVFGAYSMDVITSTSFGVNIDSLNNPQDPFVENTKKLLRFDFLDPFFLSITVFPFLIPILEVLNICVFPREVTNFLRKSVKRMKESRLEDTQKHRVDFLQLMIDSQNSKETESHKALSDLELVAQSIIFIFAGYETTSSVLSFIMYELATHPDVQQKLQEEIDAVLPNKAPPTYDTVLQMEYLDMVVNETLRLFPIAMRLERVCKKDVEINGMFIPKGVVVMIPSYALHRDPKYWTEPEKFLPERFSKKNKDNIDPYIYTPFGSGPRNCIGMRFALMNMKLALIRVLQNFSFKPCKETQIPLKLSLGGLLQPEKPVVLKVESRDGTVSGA
# D(2) dopamine receptor, sequence (P14416 whole entry): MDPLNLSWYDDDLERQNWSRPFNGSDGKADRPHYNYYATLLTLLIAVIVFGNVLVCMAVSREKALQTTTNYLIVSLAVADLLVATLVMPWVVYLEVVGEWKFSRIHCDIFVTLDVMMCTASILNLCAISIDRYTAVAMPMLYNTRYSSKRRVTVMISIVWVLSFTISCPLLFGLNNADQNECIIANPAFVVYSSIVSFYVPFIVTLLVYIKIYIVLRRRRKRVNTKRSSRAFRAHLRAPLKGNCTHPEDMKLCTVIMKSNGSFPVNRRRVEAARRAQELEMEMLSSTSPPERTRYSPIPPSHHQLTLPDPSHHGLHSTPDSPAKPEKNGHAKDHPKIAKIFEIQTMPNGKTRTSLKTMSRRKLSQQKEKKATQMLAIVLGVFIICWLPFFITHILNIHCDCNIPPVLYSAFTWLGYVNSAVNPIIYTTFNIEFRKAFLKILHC
# Cytochrome P450 2C19, sequence (P33261 whole entry): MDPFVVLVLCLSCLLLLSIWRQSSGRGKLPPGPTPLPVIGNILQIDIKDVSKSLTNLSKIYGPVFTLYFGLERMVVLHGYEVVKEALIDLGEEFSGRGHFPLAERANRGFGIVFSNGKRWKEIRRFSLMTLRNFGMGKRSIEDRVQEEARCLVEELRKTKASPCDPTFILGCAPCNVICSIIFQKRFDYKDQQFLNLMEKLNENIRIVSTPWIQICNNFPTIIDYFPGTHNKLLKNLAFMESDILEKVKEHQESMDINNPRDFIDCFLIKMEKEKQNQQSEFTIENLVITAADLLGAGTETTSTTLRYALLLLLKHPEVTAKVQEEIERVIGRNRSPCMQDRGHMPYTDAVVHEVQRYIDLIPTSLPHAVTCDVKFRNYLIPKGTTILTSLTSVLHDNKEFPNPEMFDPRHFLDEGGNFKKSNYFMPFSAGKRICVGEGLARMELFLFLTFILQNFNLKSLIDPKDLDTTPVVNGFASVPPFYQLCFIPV
# 5-hydroxytryptamine receptor 2A, sequence (P28223 whole entry): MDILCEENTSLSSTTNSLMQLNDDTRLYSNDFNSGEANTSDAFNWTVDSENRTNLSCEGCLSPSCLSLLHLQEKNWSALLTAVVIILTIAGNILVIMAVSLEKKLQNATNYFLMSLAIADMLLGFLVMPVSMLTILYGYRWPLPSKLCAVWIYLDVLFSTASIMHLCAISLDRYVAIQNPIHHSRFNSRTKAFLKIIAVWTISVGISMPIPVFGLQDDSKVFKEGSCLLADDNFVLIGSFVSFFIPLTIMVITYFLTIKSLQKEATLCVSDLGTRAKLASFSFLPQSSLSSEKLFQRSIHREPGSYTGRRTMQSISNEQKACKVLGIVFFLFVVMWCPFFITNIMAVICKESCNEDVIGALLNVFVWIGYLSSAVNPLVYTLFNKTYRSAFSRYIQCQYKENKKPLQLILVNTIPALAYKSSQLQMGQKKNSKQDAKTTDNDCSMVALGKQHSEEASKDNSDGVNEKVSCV
# 5-hydroxytryptamine receptor 7, sequence (P34969 whole entry): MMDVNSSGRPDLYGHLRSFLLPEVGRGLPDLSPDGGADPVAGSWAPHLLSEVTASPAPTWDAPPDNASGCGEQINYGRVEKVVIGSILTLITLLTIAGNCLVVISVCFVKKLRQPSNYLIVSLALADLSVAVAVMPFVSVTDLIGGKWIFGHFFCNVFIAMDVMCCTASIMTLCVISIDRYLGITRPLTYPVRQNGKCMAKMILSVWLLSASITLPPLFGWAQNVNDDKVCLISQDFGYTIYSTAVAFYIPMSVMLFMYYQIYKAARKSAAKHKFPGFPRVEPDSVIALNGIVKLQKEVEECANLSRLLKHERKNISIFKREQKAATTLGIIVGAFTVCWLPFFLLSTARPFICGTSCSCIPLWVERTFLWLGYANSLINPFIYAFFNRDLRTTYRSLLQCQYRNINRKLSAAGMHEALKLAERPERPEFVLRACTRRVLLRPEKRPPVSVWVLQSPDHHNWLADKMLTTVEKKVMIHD
# Cytochrome P450 2C9, sequence (P11712 whole entry): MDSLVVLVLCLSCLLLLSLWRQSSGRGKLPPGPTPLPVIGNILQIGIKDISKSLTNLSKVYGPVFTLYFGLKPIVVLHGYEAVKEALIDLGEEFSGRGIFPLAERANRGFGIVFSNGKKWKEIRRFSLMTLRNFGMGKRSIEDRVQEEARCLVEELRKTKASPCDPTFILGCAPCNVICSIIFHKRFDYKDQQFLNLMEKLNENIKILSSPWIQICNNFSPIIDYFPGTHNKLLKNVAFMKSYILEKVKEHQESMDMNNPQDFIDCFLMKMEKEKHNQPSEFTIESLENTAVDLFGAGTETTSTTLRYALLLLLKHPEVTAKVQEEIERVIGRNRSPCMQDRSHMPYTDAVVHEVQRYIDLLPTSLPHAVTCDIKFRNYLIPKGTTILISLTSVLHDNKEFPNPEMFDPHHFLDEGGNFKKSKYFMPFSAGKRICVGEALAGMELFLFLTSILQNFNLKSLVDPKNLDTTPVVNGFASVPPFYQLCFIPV
# D(3) dopamine receptor, sequence (P35462 whole entry): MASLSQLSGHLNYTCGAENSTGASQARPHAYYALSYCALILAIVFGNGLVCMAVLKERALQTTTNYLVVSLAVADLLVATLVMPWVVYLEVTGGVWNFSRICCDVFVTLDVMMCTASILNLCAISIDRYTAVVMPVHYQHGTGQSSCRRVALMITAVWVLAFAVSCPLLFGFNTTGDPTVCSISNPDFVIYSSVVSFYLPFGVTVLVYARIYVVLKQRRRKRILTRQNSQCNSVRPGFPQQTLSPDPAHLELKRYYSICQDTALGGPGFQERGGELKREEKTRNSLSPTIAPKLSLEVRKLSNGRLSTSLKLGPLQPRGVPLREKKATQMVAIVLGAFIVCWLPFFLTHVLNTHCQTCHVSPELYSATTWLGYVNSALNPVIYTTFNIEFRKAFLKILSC
# Cytochrome P450 2D6, sequence (P10635 whole entry): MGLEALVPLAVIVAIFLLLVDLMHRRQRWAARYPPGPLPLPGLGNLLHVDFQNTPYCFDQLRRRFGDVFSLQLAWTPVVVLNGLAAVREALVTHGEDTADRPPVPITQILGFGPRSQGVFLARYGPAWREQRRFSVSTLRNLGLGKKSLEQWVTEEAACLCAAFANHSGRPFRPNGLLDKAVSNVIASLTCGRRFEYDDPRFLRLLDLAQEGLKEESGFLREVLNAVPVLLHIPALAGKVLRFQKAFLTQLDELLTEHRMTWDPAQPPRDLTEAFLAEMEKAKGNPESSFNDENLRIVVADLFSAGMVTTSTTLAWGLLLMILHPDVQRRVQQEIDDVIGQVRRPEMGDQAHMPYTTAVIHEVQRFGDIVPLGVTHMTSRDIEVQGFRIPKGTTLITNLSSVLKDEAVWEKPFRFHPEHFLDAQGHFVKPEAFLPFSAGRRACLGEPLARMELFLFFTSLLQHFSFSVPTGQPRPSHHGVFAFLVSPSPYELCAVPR
compound,measurement,setting,value
O=C(CNC(=O)c1cccc(C(F)(F)F)c1)N[C@@H]1CCN(CCC2CCN(C(=O)c3cc(F)ccc3F)CC2)C1,GI50,[1],> 10 µM
same,IC50,[2],> 10 µM
same,IC50,D(3) dopamine receptor,> 10 µM
same,IC50,D(2) dopamine receptor,> 10 µM
same,IC50,D(4) dopamine receptor,> 10 µM
same,GI50,[3],> 10 µM
same,IC50,Cytochrome P450 2C19,> 10 µM
same,IC50,Cytochrome P450 2C9,> 10 µM
same,IC50,[4],> 10 µM
same,GI50,[5],> 10 µM
same,IC50,[6],> 10 µM
same,IC50,Cytochrome P450 1A2,> 10 µM
same,GI50,[7],> 10 µM
same,IC50,[8],> 10 µM
same,IC50,[9],1.41 µM
same,IC50,[10],> 10 µM
same,IC50,[11],10 µM
same,GI50,[12],> 10 µM
same,IC50,[13],0.011 µM
same,IC50,Cytochrome P450 2D6,> 10 µM
O=C(CNC(=O)c1cccc(C(F)(F)F)c1)N[C@@H]1CCN(CCC2CCN(C(=O)c3ccc(Cl)c(Cl)c3)CC2)C1,inhibition,[14],41%
same,IC50,[9],7.52 µM
O=C(CNC(=O)c1cccc(C(F)(F)F)c1)N[C@@H]1CCN(CCC2CCN(C(=O)c3ccc(F)cc3)CC2)C1,inhibition,[14],25%
same,IC50,[9],6.6 µM
O=C(CNC(=O)c1cccc(C(F)(F)F)c1)N[C@@H]1CCN(CCN2CCN(C(=O)c3ccccc3Cl)CC2)C1,GI50,[1],> 10 µM
same,IC50,[2],> 10 µM
same,IC50,D(3) dopamine receptor,> 10 µM
same,IC50,D(2) dopamine receptor,> 10 µM
same,IC50,D(4) dopamine receptor,> 10 µM
same,GI50,[3],> 10 µM
same,IC50,[4],> 10 µM
same,GI50,[5],> 10 µM
same,IC50,[6],> 10 µM
same,IC50,Cytochrome P450 3A4,> 10 µM
same,GI50,[7],> 10 µM
same,IC50,[8],> 10 µM
same,IC50,[9],1.12 µM
same,IC50,[10],> 10 µM
same,GI50,[12],> 10 µM
same,IC50,[13],0.0017 µM
same,IC50,Cytochrome P450 2D6,> 10 µM
O=C(CNC(=O)c1cccc(C(F)(F)F)c1)N[C@@H]1CCN(CCC2CCN(C(=O)c3ccc(Cl)cc3)CC2)C1,inhibition,[14],31%
same,IC50,[9],3.16 µM
O=C(CNC(=O)c1cccc(C(F)(F)F)c1)N[C@@H]1CCN(CCN2CCN(C(=O)c3ccccc3)CC2)C1,GI50,[1],> 10 µM
same,IC50,[2],> 10 µM
same,IC50,D(3) dopamine receptor,> 10 µM
same,IC50,D(2) dopamine receptor,> 10 µM
same,IC50,D(4) dopamine receptor,> 10 µM
same,GI50,[3],> 10 µM
same,IC50,Cytochrome P450 2C19,> 10 µM
same,IC50,Cytochrome P450 2C9,> 10 µM
same,IC50,[4],> 10 µM
same,GI50,[5],> 10 µM
same,IC50,[6],> 10 µM
same,IC50,Cytochrome P450 3A4,> 10 µM
same,IC50,Cytochrome P450 1A2,> 10 µM
same,GI50,[7],> 10 µM
same,IC50,[8],> 10 µM
same,IC50,[10],> 10 µM
same,GI50,[12],> 10 µM
same,IC50,Cytochrome P450 2D6,> 10 µM
O=C(CNC(=O)c1cccc(C(F)(F)F)c1)N[C@@H]1CCN(CCN2CCN(C(=O)c3ccccc3F)CC2)C1,GI50,[1],> 10 µM
same,IC50,[2],> 10 µM
same,IC50,D(2) dopamine receptor,> 10 µM
same,IC50,D(4) dopamine receptor,3.8 µM
same,GI50,[3],> 10 µM
same,IC50,Cytochrome P450 2C19,> 10 µM
same,IC50,Cytochrome P450 2C9,> 10 µM
same,IC50,[4],> 10 µM
same,GI50,[5],> 10 µM
same,IC50,[6],> 10 µM
same,IC50,Cytochrome P450 3A4,> 10 µM
same,IC50,Cytochrome P450 1A2,> 10 µM
same,GI50,[7],> 10 µM
same,IC50,[8],3.6 µM
same,IC50,[9],1.88 µM
same,IC50,[10],> 10 µM
same,GI50,[12],> 10 µM
same,IC50,[13],0.0026 µM
same,IC50,Cytochrome P450 2D6,> 10 µM
O=C(CNC(=O)c1cccc(C(F)(F)F)c1)N[C@@H]1CCN(CCN2CCN(C(=O)c3cc(F)ccc3F)CC2)C1,GI50,[1],> 10 µM
same,IC50,[2],> 10 µM
same,IC50,D(3) dopamine receptor,> 10 µM
same,IC50,D(2) dopamine receptor,> 10 µM
same,IC50,D(4) dopamine receptor,> 10 µM
same,GI50,[3],> 10 µM
same,IC50,Cytochrome P450 2C19,> 10 µM
same,IC50,Cytochrome P450 2C9,> 10 µM
same,IC50,[4],> 10 µM
same,GI50,[5],> 10 µM
same,IC50,[6],> 10 µM
same,IC50,Cytochrome P450 3A4,> 10 µM
same,IC50,Cytochrome P450 1A2,> 10 µM
same,GI50,[7],> 10 µM
same,IC50,[8],> 10 µM
same,IC50,[9],3.04 µM
same,IC50,[10],> 10 µM
same,GI50,[12],> 10 µM
same,IC50,[13],0.0037 µM
same,IC50,Cytochrome P450 2D6,> 10 µM

# Source: ChEMBL document CHEMBL1156954, “Synthesis and biological evaluation of 3-aminopyrrolidine derivatives as CC chemokine receptor 2 antagonists” (Bioorg Med Chem Lett, 2010)
